Results reported in patent US10100061B2, “Oxazepine compound and agricultural/horticultural insecticide containing said compound as active ingredient, and method for using the same” (NIHON NOHYAKU CO., LTD., priority 2014, dated 2018).

Key:
[1] = system: Green Peach Aphid (Myzus Persicae); experiment: Test of preventive value against green peach aphid (Test Example 1); assay type: in vivo; conditions: 500 ppm, sprayed over stems and leaves of potted Chinese cabbages, sixth day after spraying
Experimental: Test of Preventive Value Against Green Peach Aphid (Myzus Persicae)
Chinese cabbages were planted in plastic pots, each with a size of 8 cm in diameter and 8 cm in height, after which green peach aphids were propagated and the number of parasitic insects was examined in each pot. An oxazepine compound or salt thereof expressed by General Formula (I) according to the present invention was dispersed in water and the dispersion was diluted to 500 ppm in the form of a reagent, after which the reagent was sprayed over stems and leaves of potted Chinese cabbages and let dry under wind, and the pots were kept in a greenhouse, and on the sixth day after the reagent was sprayed, the number of green peach aphids living parasitically on each Chinese cabbage was examined and the preventive value was calculated based on the formula below, and judgment was made according to the criteria below. Preventive value=100−{(T×Ca)/(Ta×C)}×100 [Mathematical Formula 1] • Ta: Number of parasitic insects inside the treatment area before spraying • T: Number of parasitic insects inside the treatment area after spraying • Ca: Number of parasitic insects inside the non-treatment area before spraying • C: Number of parasitic insects inside the non-treatment area after spraying Judgment Criteria • A - - - Preventive value: 100% • B - - - Preventive value: 99%˜90% • C - - - Preventive value: 89%˜80% • D - - - Preventive value: 79%˜50%

[2] = system: Small Brown Planthopper (Laodelphax Striatellus); experiment: Test of insecticidal efficacy against small brown planthopper (Test Example 2); assay type: in vivo; conditions: 500 ppm, rice plants soaked 30 seconds, third-instar larvae, eight days after inoculation; criteria same as in Test Example 1
Excerpt: Test of Insecticidal Efficacy Against Small Brown Planthopper (Laodelphax Striatellus)

SMILES	Preventive value, judgment [1]	Corrected insect mortality, judgment [2]
O=C1c2nn(-c3cccnc3)cc2Oc2ccccc2N1CC(F)(F)C(F)(F)F [8-20]	A to D	A to D
C#CCN1C(=O)c2nn(-c3cccnc3)cc2Oc2cc(C#N)ccc21 [1-48]	A to D	A to D
CN1C(=S)c2nn(-c3cccnc3)cc2Oc2ccccc21 [Compound No. 2-2, 9-methyl-2-(pyridine-3-yl)-2H-benzo [b]pyrazolo [3,4-f][1,4]oxazepine-10 (9H)-thione]	A to D	A to D
COc1ccc2c(c1)Oc1cn(-c3cccnc3)nc1C(=O)N2 [1-39]	A to D	A to D
N#CCN1C(=O)c2nn(-c3cccnc3)cc2Oc2ccc(F)cc21 [1-17]	A to D	A to D
CCOCN1C(=O)c2nn(-c3cccnc3)cc2Oc2cc(F)ccc21 [8-26]	A to D	A to D
CN1C(=O)c2nn(-c3cccnc3)cc2Oc2ccccc21 [Compound No. 1-2, 9-methyl-2-(pyridine-3-yl)-2H-benzo [b]pyrazolo [3,4-f][1,4]oxazepine-10 (9H)-one]	A to D	A to D
COc1ccc2c(c1)Oc1cn(-c3cccnc3)nc1C(=O)N2CC#N [1-42]	A to D	A to D
ONC1=Nc2ccccc2Oc2cn(-c3cccnc3)nc21 [11-9]	A to D	A to D
COCCN1C(=O)c2nn(-c3cccnc3)cc2Oc2ccccc21 [1-68]	A to D	A to D
O=C1c2nn(-c3cccnc3)cc2Oc2ccccc2N1Cc1cccnc1 [1-58]	A to D	A to D
O=C1Nc2ccccc2Oc2c1nn(-c1cccnc1)c2F [9-3]	A to D	A to D
Nc1ccc2c(c1)NC(=O)c1nn(-c3cccnc3)cc1O2 [1-44]	A to D	A to D
COC(=O)N1C(=O)c2nn(-c3cccnc3)cc2Oc2ccccc21 [8-13]	A to D	A to D
O=C1c2nn(-c3cccnc3)cc2Oc2ccc(F)cc2N1CCCCBr [8-40]	A to D	A to D
CS(=O)(=O)CN1C(=O)c2nn(-c3cccnc3)cc2Oc2ccccc21 [8-4]	A to D	A to D
CN1C(=O)c2nn(-c3cccnc3)cc2Oc2nccnc21 [13-1]	A to D	A to D
CN(C)C1=Nc2ccccc2Oc2cn(-c3cccnc3)nc21 [11-10]	A to D	A to D
O=C1Nc2cc(Cl)ccc2Oc2cn(-c3cccnc3)nc21 [8-54]	A to D	A to D
CN1C(=O)c2nn(-c3cccnc3)cc2Oc2cc(F)ccc21 [Compound No. 1-11, 6-fluoro-9-methyl-2-(pyridine-3-yl)-2H-benzo [b]pyrazolo [3,4-f][1,4]oxazepine-10 (9H)-one]	A to D	A to D
CN1C(=O)c2nn(-c3cncnc3)cc2Oc2ccccc21 [1-79]	A to D	A to D
O=C1c2nn(-c3cccnc3)cc2Oc2ccccc2N1CCc1ccccc1 [1-62]	A to D	A to D
CN1C(=O)c2nn(-c3cccnc3)cc2Oc2ccncc21 [12-1]	A to D	A to D

SMILES	Preventive value, judgment [1]	Corrected insect mortality, judgment [2]
C=CCN(CC=C)C1=Nc2cc(F)ccc2Oc2cn(-c3cccnc3)nc21 [11-11]	A to D	A to D
C#CCN1C(=O)c2nn(-c3cccnc3)cc2Oc2ccccc21 [1-3]	A to D	A to D
CN1C(=O)c2nn(-c3cccnc3)cc2Oc2ccc(C(F)(F)F)cc21 [1-38]	A to D	A to D
C#CCN1C(=O)c2nn(-c3cncc(F)c3)cc2Oc2cc(F)ccc21 [1-81]	A to D	A to D
NC1=Nc2ccccc2Oc2cn(-c3cccnc3)nc21 [11-5]	A to D	A to D
CN1C(=O)c2nn(-c3cccnc3)cc2Oc2ccc(N)cc21 [1-45]	A to D	A to D
N#Cc1ccc2c(c1)NC(=O)c1nn(-c3cccnc3)cc1O2 [1-50]	A to D	A to D
Cc1ccc2c(c1)Oc1cn(-c3cccnc3)nc1C(=O)N2CC#N [1-33]	A to D	A to D
O=C1c2nn(-c3cccnc3)cc2Oc2ccccc2N1CCN1CCCCC1 [1-70]	A to D	A to D
C#CCN1C(=O)c2nn(-c3cccnc3)cc2Oc2cc(C(F)(F)F)ccc21 [1-35]	A to D	A to D
COCN1C(=O)c2nn(-c3cccnc3)cc2Oc2cc(F)ccc21 [8-25]	A to D	A to D
C#CCN1C(=O)c2nn(-c3cccnc3)cc2Oc2ccc(F)cc21 [1-16]	A to D	A to D
S=C1Nc2ccccc2Oc2cn(-c3cccnc3)nc21 [2-1]	A to D	A to D
ClC1=Nc2ccccc2Oc2cn(-c3cccnc3)nc21 [11-1]	A to D	A to D
CCCCCCCCCCCCN1C(=O)c2nn(-c3cccnc3)cc2Oc2ccc(F)cc21 [8-37]	A to D	A to D
CSCCOC1=Nc2ccc(C(F)(C(F)(F)F)C(F)(F)F)cc2Oc2cn(-c3cccnc3)nc21 [11-17]	A to D	A to D
O=C1c2nn(-c3cccnc3)cc2Oc2ccc(F)cc2N1CCCl [8-38]	A to D	A to D
O=C1c2nn(-c3cccnc3)cc2Oc2ccccc2N1CCN1CCOCC1 [1-71]	A to D	A to D
COC(CN1C(=O)c2nn(-c3cccnc3)cc2Oc2ccc(F)cc21)OC [8-42]	A to D	A to D
Cc1ccc2c(c1)Oc1cn(-c3cccnc3)nc1C(=O)N2 [1-30]	A to D	A to D
N#CCN1C(=O)c2nn(-c3cccnc3)cc2Oc2cc(C(F)(F)F)ccc21 [1-36]	A to D	A to D
CN1C(=O)c2nn(-c3cccnc3)cc2Oc2cc(C#N)ccc21 [1-47]	A to D	A to D
